Test systems include UO-31 renal; UACC-62 melanoma; OVCAR-5 ovarian; MOLT-4 leukemia; SK-MEL-5 melanoma; A498 renal; MDA-MB-231 breast; HS 578T breast; CAKI-1 renal; MALME-3M melanoma.
Assay in all cases: NCI-60 cell line screen, 48 h

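Step 1: Grow cells in 96-well plates. Step 2: Expose to compound for 48 hours at 5 concentrations. Step 3: Interpolate endpoints linearly; if unreached, use highest concentration. GI50 marks 50% less growth. Definition used: TGI = concentration required for complete inhibition of growth.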 Some results are limits rather than exact numbers.

For the compound `CCSC(SCC)c1cc2c(cc1Br)OCO2`, the TGI in the assay with UO-31 renal is 85.3 µM; in the assay on UACC-62 melanoma, greater than 100 µM; in the assay with OVCAR-5 ovarian it was greater than 100 µM; in the assay with MOLT-4 leukemia it was 42.2 µM; in the assay on SK-MEL-5 melanoma it was 38.4 µM; in the assay with A498 renal, 86.7 µM.
Turning to `O=C(NCCc1ccccc1)C(c1ccccc1)(c1ccccc1)c1ccccc1`, the GI50 was 6.32 µM in the assay with UO-31 renal; 0.519 µM in the assay on MDA-MB-231 breast; 1.46 µM in the assay on UACC-62 melanoma; 3.91 µM in the assay on OVCAR-5 ovarian; 3.88 µM in the assay with HS 578T breast; greater than 100 µM in the assay on MOLT-4 leukemia. Besides, the GI50 in the assay with SK-MEL-5 melanoma is 8.97 µM; in the assay with CAKI-1 renal it was 4.16 µM. The TGI was 43.4 µM with UO-31 renal; 4.21 µM in the assay with MDA-MB-231 breast; 14.6 µM with UACC-62 melanoma; 50.6 µM in the assay with OVCAR-5 ovarian; 23.7 µM in the assay on HS 578T breast; greater than 100 µM in the assay on MOLT-4 leukemia. In addition, the results for the TGI in the assay with SK-MEL-5 melanoma and in the assay with CAKI-1 renal were 21.4 µM and 26.1 µM, respectively.
Regarding `NC(=O)/C(=C\c1ccncc1)c1cccc2ccccc12`, the TGI with UO-31 renal, in the assay on MDA-MB-231 breast, in the assay on UACC-62 melanoma, in the assay with OVCAR-5 ovarian, in the assay on MALME-3M melanoma and with HS 578T breast was greater than 100 µM each time. Besides, the TGI in the assay on MOLT-4 leukemia, with SK-MEL-5 melanoma and in the assay on CAKI-1 renal was greater than 100 µM each time.
With `CCN(CC)c1ccc(C2CC(c3cc(OC)c(OC)c(OC)c3)=NN2)cc1` (stereo unspecified), the GI50 is 1.5 µM with UO-31 renal; 0.513 µM in the assay with MDA-MB-231 breast; 0.446 µM in the assay on UACC-62 melanoma; 5.12 µM with OVCAR-5 ovarian; 14.5 µM with MALME-3M melanoma; 1.56 µM in the assay with MOLT-4 leukemia. The GI50 was 0.706 µM with SK-MEL-5 melanoma, 0.443 µM in the assay on A498 renal and 0.346 µM in the assay with CAKI-1 renal. For the same compound, the TGI with UO-31 renal is greater than 100 µM; with MDA-MB-231 breast, 69.2 µM; in the assay with UACC-62 melanoma it was greater than 68.2 µM; with OVCAR-5 ovarian, greater than 100 µM; with MALME-3M melanoma, greater than 78.7 µM; with MOLT-4 leukemia, 8.14 µM. Besides, the TGI with SK-MEL-5 melanoma worked out at 3.52 µM; with A498 renal, 2.44 µM.
As for `O=C1OC(c2ccccc2)=N/C1=C\c1ccc2ccccc2c1`, the TGI in the assay on UO-31 renal, in the assay with UACC-62 melanoma, in the assay with OVCAR-5 ovarian, with MALME-3M melanoma, in the assay with MOLT-4 leukemia and with SK-MEL-5 melanoma was greater than 100 µM in each case. Further, the TGI with A498 renal and in the assay with CAKI-1 renal was greater than 100 µM throughout.
In the case of `C=CCCOC(=O)CO[N+](=O)[O-]`, the TGI in the assay on UO-31 renal, with OVCAR-5 ovarian, in the assay on MALME-3M melanoma, in the assay with MOLT-4 leukemia and with CAKI-1 renal was greater than 100 µM each time.
`CSc1nc(NC2OCC(OC(C)=O)C(OC(C)=O)C2OC(C)=O)c(N=C(C)C(C)=O)c(=O)n1C` (stereo unspecified): the TGI in the assay on UO-31 renal, in the assay with UACC-62 melanoma, in the assay with OVCAR-5 ovarian, in the assay on MALME-3M melanoma, with MOLT-4 leukemia and in the assay with SK-MEL-5 melanoma was greater than 100 µM each time. In addition, the TGI with A498 renal and in the assay on CAKI-1 renal was greater than 100 µM throughout.
As to `C#Cc1c(C)c(/C=C/C(C)=C/C=C/C(C)=C/C(=O)OC)n(C)c1C`, the TGI with UO-31 renal, in the assay on UACC-62 melanoma, in the assay with OVCAR-5 ovarian, in the assay on MALME-3M melanoma, in the assay with MOLT-4 leukemia and in the assay with CAKI-1 renal was greater than 100 µM each time.
For the compound `COc1cc(Br)c(CC2(C#N)c3ccccc3C3C(N2C(=O)c2ccccc2)C3(Cl)Cl)cc1OC` (stereo unspecified), the TGI in the assay with UO-31 renal, with UACC-62 melanoma, in the assay on OVCAR-5 ovarian, in the assay on MALME-3M melanoma and in the assay on SK-MEL-5 melanoma was greater than 65.5 µM in each case.
In the case of `COc1cc2c(c(OC)c1O)-c1ccc(OC)c(=O)cc1[C@@H](NC(=O)C(F)(F)F)CC2`, the TGI was greater than 100 µM in the assay with UO-31 renal; 0.628 µM with MDA-MB-231 breast; greater than 100 µM with UACC-62 melanoma; greater than 100 µM in the assay on OVCAR-5 ovarian; greater than 100 µM in the assay with MALME-3M melanoma; greater than 100 µM in the assay on MOLT-4 leukemia. The TGI is 0.0668 µM with SK-MEL-5 melanoma, 2.21 µM with A498 renal and greater than 100 µM with CAKI-1 renal.
On to `CCOC(=O)Cc1nc2ccccc2s1`, for which the TGI in the assay with UO-31 renal came out at 29.7 µM; in the assay on UACC-62 melanoma, 33.3 µM; in the assay on OVCAR-5 ovarian, 57 µM; with MALME-3M melanoma, 31.2 µM; in the assay with MOLT-4 leukemia, 65.9 µM; with SK-MEL-5 melanoma, 48.5 µM. Further, the TGI in the assay with A498 renal was 36 µM; in the assay on CAKI-1 renal, 48.1 µM.
Regarding `Cc1nnc(N=Nc2c(O)[nH]c3c(Cl)cc(Cl)cc23)n1N`, the TGI in the assay on UO-31 renal, in the assay with UACC-62 melanoma, with OVCAR-5 ovarian, with MALME-3M melanoma, with MOLT-4 leukemia and in the assay with A498 renal was greater than 100 µM each time. The same compound displayed a TGI in the assay with CAKI-1 renal greater than 100 µM.
`CN(C)CCCNC(=O)c1ccc2oc3cc4ccccc4c(=O)n3c2c1`: the GI50 in the assay on UO-31 renal is 18.3 µM; with MDA-MB-231 breast, 16.5 µM; in the assay on UACC-62 melanoma, greater than 50 µM; in the assay with MALME-3M melanoma it was greater than 50 µM; in the assay with MOLT-4 leukemia it was greater than 50 µM; in the assay on SK-MEL-5 melanoma it was 11.2 µM. Moreover, the GI50 in the assay on CAKI-1 renal is 8.31 µM. Besides, the TGI with UO-31 renal was greater than 50 µM; in the assay on MDA-MB-231 breast it was greater than 50 µM; in the assay on UACC-62 melanoma, greater than 50 µM; with MALME-3M melanoma, greater than 50 µM; with MOLT-4 leukemia, greater than 50 µM; in the assay with SK-MEL-5 melanoma, 28.8 µM. This compound gave a TGI with CAKI-1 renal of 36.5 µM.
For the compound `O=C(Cc1nc2ccccc2s1)Nc1ccc(Cl)cc1`, the TGI in the assay with UO-31 renal, in the assay with UACC-62 melanoma, in the assay on OVCAR-5 ovarian, in the assay on MALME-3M melanoma, in the assay with MOLT-4 leukemia and in the assay on SK-MEL-5 melanoma was greater than 100 µM throughout. Besides, the TGI in the assay with A498 renal and in the assay with CAKI-1 renal was greater than 100 µM each time.

(Values after PubChem BioAssay (NCI).)
